Assay results published in patent US6849616B1, “Methods to potentiate intravenous estramustine phosphate” (Pharmacia Italia S.p.A., priority 1998, dated 2005).

Tests used:
[1] = test system: advanced metastatic prostate cancer; test: Clinical cases: weekly high-dose intravenous estramustine phosphate
prostate cancer = details: given orally with escalating doses of docetaxel, cited from earlier work
[2] = test system: hormone refractory prostate cancer; details: oral, combined with vinblastine, cited from earlier work
[3] = test system: hormone refractory prostate cancer; details: with Taxol, cited from earlier work
[4] = test system: hormone refractory prostate cancer; details: oral, combined with Etoposide, cited from earlier work
[5] = cited from earlier work
tubulin = details: in vitro (Dahllof 1993); cited from earlier work
[6] = test system: estramustine binding protein (EMBP); details: cited from earlier work
[7] = Gunnarsson, 1981, 1984; cited from earlier work
tumor cell division = details: tissue culture (Hartley-Asp, 1984); cited from earlier work
[8] = Pharmacokinetics after a single high intravenous dose of estramustine phosphate in patients; details: after a single high intravenous dose of estramustine phosphate at 1000 mg/m^2; FIG. 2
[9] = patients, single intravenous dose of 300 mg; previous data; cited from earlier work
[10] = 1000 mg/m^2 i.v. central line, 30 minute infusion, three patients
[11] = 1500 mg/m^2 i.v. central line, 30 minutes or 1 hour infusion, three patients
[12] = 2000 mg/m^2 i.v. central line, 60 minute infusion, with anti-thrombotic agent, three patients
[13] = 2500 mg/m^2 i.v. central line, 90 minute infusion, two patients
[14] = 245 patients, 300-600 mg/day i.v. for 21 days then once or twice weekly for 2 months (Andersson et al)

C[C@]12CC[C@@H]3c4ccc(OC(=O)N(CCCl)CCCl)cc4CC[C@H]3[C@@H]1CC[C@@H]2OP(=O)(O)O [estramustine phosphate]
PSA response [1, 10]: several patients demonstrating PSA response | tolerability of infusions [1, 10]: well tolerated | tolerability of infusions [1, 11]: well tolerated | tumor response [1, 11]: one patient demonstrating a response in bulky tumor adenopathy | PSA response [1, 12]: evidence of PSA response | tolerability of infusions [1, 12]: well tolerated without serious toxicity | prostate specific antigen (PSA) response [1, 13]: both patients demonstrated a response (reduction) | tolerability of infusions [1, 13]: well tolerated without serious toxicity | overall prostate specific antigen response rate (prostate cancer): 62% | partial response in lymph nodes (prostate cancer; patients with bidimensionally measurable disease (3 patients)): 43% | incidence of significant cardiovascular toxicity ([2]; 4/37): 10.5% | decrease in prostate specific antigen ([2]; among 88 patients): 50-75% | most frequent toxicity [2]: mild to moderate nausea | transient hepatic enzyme elevation of grade 1-3 ([3]; 6 patients): 35.2% | edema ([3]; 8 patients): 47% | patients obtaining a PR ([3]; of six patients with measurable disease, PR of 2+, 6, and 8 months): 3 | Grade 3-4 granulocytopenia and mucositis ([3]; seventeen patients): 2 patients | median duration of response ([3]; seventeen patients): 7 months | nausea grade 1-2 ([3]; seventeen patients): 70.5% | patients with PSA decreased by ≧50% ([3]; seventeen patients): 58.8% | complete responses (CR) ([4]; 20 patients with soft tissue disease (3 patients)): 15% | partial responses (PR) ([4]; 20 patients with soft tissue disease (6 patients)): 30% | patients with bone metastases improved ([4]; 32 patients with bone metastases (8 patients)): 25% | patients with bone metastases stable ([4]; 32 patients with bone metastases (12 patients)): 38% | men with a 75% decrease in prostate specific antigen ([4]; overall, 13 men): 25% | men with a 50% decrease in prostate specific antigen ([4]; overall, 28 men): 54% | toxicity at 450 mg/day intravenous ([5]; 450 mg/day i.v. (Nagel and Kölln 1977)): severe gastrointestinal problems | patients with severe liver problems ([5]; 900 mg/day i.v. for 7-10 days followed by oral therapy, 11 of 18 patients (Maier 1990)): 61% | patients exhibiting gastrointestinal problems [5, 14]: 17% | patients exhibiting liver disturbances [5, 14]: 9% | patients exhibiting thrombophlebitis [5, 14]: 20%

C[C@]12CC[C@@H]3c4ccc(OC(=O)N(CCCl)CCCl)cc4CC[C@H]3[C@@H]1CC[C@@H]2O [estramustine]
effect on assembly of microtubules composed of only tubulin (tubulin): inhibited the assembly of microtubules | binding affinity to EMBP-like protein [6]: very high affinity | yield of estradiol and estrone, respectively, by cleavage of the carbamic ester [7]: approximately 15% | anti-mitotic effect (tumor cell division): dose-dependent blocking of tumor cell division in the metaphase

C[C@]12CC[C@@H]3c4ccc(OC(=O)N(CCCl)CCCl)cc4CC[C@H]3[C@@H]1CCC2=O [estromustine]
half life of estromustine [8]: approximately 100 hours | binding affinity to EMBP-like protein [6]: very high affinity | elimination half lives of estromustine [9]: 10 to 20 h | yield of estradiol and estrone, respectively, by cleavage of the carbamic ester [7]: approximately 15%
